Measured values as given in patent publication US10683293B2, “Optionally fused heterocyclyl-substituted derivatives of pyrimidine useful for the treatment of inflammatory, metabolic, oncologic and autoimmune diseases” (NUEVOLUTION A/S, priority 2014, dated 2020).

What follows are molecules tested against T1, human RORγt (Ligand Binding Domain) (Homo sapiens, UniProt P51449) (assay: Fluorescence Polarization (FP) Assay). Settings: 100 nM human RORγt LBD, 25 nM TAMRA probe, values are activity range bounds.
T1 construct: purchased Crelux (Planegg, Germany) batch no PC5032-1
T1 sequence (P51449 269-508 limits assumed): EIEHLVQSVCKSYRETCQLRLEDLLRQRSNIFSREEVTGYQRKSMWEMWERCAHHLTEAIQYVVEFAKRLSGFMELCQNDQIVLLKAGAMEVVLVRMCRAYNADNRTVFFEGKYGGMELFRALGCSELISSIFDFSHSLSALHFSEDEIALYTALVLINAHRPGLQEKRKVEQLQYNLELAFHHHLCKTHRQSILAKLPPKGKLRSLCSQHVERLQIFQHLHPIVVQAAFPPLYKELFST
Description: The activity of the compounds was evaluated using a Fluorescence Polarization (FP) Assay and, RORγ Reporter assay (also referred to as Gal4 assay). The FP assay is an in vitro assay monitoring binding within the ligand binding pocket. The RORγ and the Th17 assays (another suitable assay) are both cell-based assays monitoring functional activity of the compound assayed.
Fluorescence Polarization (FP) Assay
The total volume was 25 μl, in a black Perkin Elmer OptiPlate. As negative control, 1 μl DMSO was used. […] The probe is a fluorescently labeled (TAMRA) RORγt ligand identified by Nuevolution with a total molecular weight of 910 g/mole as shown in Graph A in FIG. 1.

SMILES | IC50
Fc1c(NCc2ccncc2)ncnc1N(Cc1ccc(C(F)(F)F)cc1)C1CC1 [Example A41, N4-cyclopropyl-5-fluoro-N6-(4-pyridylmethyl)-N4-[[4-(trifluoromethyl)phenyl]methyl] pyrimidine-4,6-diamine] | < 500 nM
COC1CCCCC1CNc1ncnc(N(Cc2ccc(C(F)(F)F)cc2)C2CC2)c1F (centres unmarked) [Example A43, N4-cyclopropyl-5-fluoro-N6-[(2-methoxycyclohexyl)methyl]-N4-[[4-(trifluoromethyl)phenyl]methyl] pyrimidine-4,6-diamine] | < 1000 nM
OC1(CNc2ncnc(N(Cc3ccc(C(F)(F)F)cc3)C3CC3)c2F)CCC(F)(F)CC1 [Example A44, 1-[[[6-[cyclopropyl-[[4-(trifluoromethyl)phenyl]methyl]amino]-5-fluoro-pyrimidin-4-yl]amino]methyl]-4,4-difluoro-cyclohexanol] | < 500 nM
CS(=O)(=O)CC1(CNc2ncnc(N(Cc3ccc(C(F)(F)F)cc3)C3COC3)c2F)CCOCC1 [Example A45, 5-fluoro-N6-[[4-(methylsulfonylmethyl)tetrahydro-pyran-4-yl]methyl]-N4-(oxetan-3-yl)-N4-[[4-(trifluoromethyl)phenyl]methyl] pyrimidine-4,6-diamine] | < 2000 nM
CC(C)(C)OC(=O)NCC(c1ccc(C(F)(F)F)cc1)N(c1ncnc(NCc2ccc(CC(N)=O)cc2)c1F)C1CC1 (centres unmarked) [Example A47, tert-butyl N-[2-[[6-[[4-(2-amino-2-oxo-ethyl)phenyl]methylamino]-5-fluoro-pyrimidin-4-yl]-cyclopropyl-amino]-2-[4-(trifluoromethyl)phenyl]ethyl] carbamate] | < 10000 nM
CS(=O)(=O)N1CCC(O)(CNc2ncnc(N(Cc3ccc(C(F)(F)F)cc3)C3CC3)c2F)CC1 [Example A69, 4-[[[6-[cyclopropyl-[[4-(trifluoromethyl)phenyl]methyl]amino]-5-fluoro-pyrimidin-4-yl]amino]methyl]-1-methylsulfonyl-piperidin-4-ol] | < 500 nM
O=C(O)CC1(CNc2ncnc(N(Cc3ccc(C(F)(F)F)cc3)C3CC3)c2F)CCS(=O)(=O)CC1 [Example A72, 2-[4-[[[6-[cyclopropyl-[[4-(trifluoromethyl)phenyl]methyl]amino]-5-fluoro-pyrimidin-4-yl]amino]methyl]-1,1-dioxo-thian-4-yl]acetic acid] | < 10000 nM
N#CNC(=O)c1ccc(CNc2ncnc(N(Cc3ccc(C(F)(F)F)cc3)C3CC3)c2F)cc1 [Example A84, N-cyano-4-[[[6-[cyclopropyl-[[4-(trifluoromethyl)phenyl]methyl]amino]-5-fluoro-pyrimidin-4-yl]amino]methyl]benzamide] | < 500 nM
O=C(O)CC1CC(CNc2ncnc(N(Cc3ccc(C(F)(F)F)cc3)C3CC3)c2F)C1 (centres unmarked) [Example A92, 2-[3-[[[6-[cyclopropyl-[[4-(trifluoromethyl)phenyl]methyl]amino]-5-fluoro-pyrimidin-4-yl]amino]methyl]cyclobutyl]acetic acid] | < 10000 nM
N#Cc1ccc(CN(c2ncnc(NCc3ccc(CC(N)=O)cc3)c2F)C2CC2)cn1 [Example A93, 2-[4-[[[6-[(6-cyano-3-pyridyl)methyl-cyclopropyl-amino]-5-fluoro-pyrimidin-4-yl]amino]methyl]phenyl]acetamide] | < 2000 nM
NC(=O)C1CC(CNc2ncnc(N(Cc3ccc(C(F)(F)F)cc3)C3CC3)c2F)C1 (centres unmarked) [Example A96, 3-[[[6-[cyclopropyl-[[4-(trifluoromethyl)phenyl]methyl]amino]-5-fluoro-pyrimidin-4-yl]amino]methyl]cyclobutane-carboxamide] | < 10000 nM
NC(=O)Cc1ccc(CNc2ncnc(N(Cc3ccc(C(F)(F)F)nn3)C3CC3)c2F)cc1 [Example A99, 2-[4-[[[6-[cyclopropyl-[[6-(trifluoromethyl)pyridazin-3-yl]methyl]amino]-5-fluoro-pyrimidin-4-yl]amino]methyl]phenyl]acetamide] | < 10000 nM
CS(=O)(=O)N1CCC(C(=O)Nc2ncnc(N(Cc3ccc(C(F)(F)F)cc3)C3CC3)c2F)CC1 [Example A100, N-[6-[cyclopropyl-[[4-(trifluoromethyl)phenyl]methyl]amino]-5-fluoro-pyrimidin-4-yl]-1-methylsulfonyl-piperidine-4-carboxamide] | < 10000 nM
O=S(=O)(Nc1ccc(CNc2ncnc(N(Cc3ccc(C(F)(F)F)nc3)C3CC3)c2F)cc1)C(F)F [Example A105, N-[4-[[[6-[cyclopropyl-[[6-(trifluoromethyl)-3-pyridyl]methyl]amino]-5-fluoro-pyrimidin-4-yl]amino]methyl]phenyl]-1,1-difluoro-methanesulfonamide] | < 10000 nM
O=S(=O)(Nc1ccc(CNc2ncnc(N(Cc3ccc(C(F)(F)F)cn3)C3CC3)c2F)cc1)C(F)F [Example A106, N-[4-[[[6-[cyclopropyl-[[5-(trifluoromethyl)-2-pyridyl]methyl]amino]-5-fluoro-pyrimidin-4-yl]amino]methyl]phenyl]-1,1-difluoro-methanesulfonamide] | < 10000 nM
CS(=O)(=O)Nc1ncc(CNc2ncnc(N(Cc3ccc(C(F)(F)F)cc3)C3CC3)c2F)cn1 [Example A111, N-[5-[[[6-[cyclopropyl-[[4-(trifluoromethyl)phenyl]methyl]amino]-5-fluoro-pyrimidin-4-yl]amino]methyl]pyrimidin-2-yl]methanesulfonamide] | < 1000 nM
NC(=O)Cc1ccc(CNc2ncnc(N(Cc3ccc(C(F)(F)F)nc3)C3CC3)c2F)cn1 [Example A112, 2-[5-[[[6-[cyclopropyl-[[6-(trifluoromethyl)-3-pyridyl]methyl]amino]-5-fluoro-pyrimidin-4-yl]amino]methyl]-2-pyridyl]acetamide] | < 2000 nM
NC(=O)Cc1ccc(CNc2ncnc(N(Cc3ccc(C(F)(F)F)cn3)C3CC3)c2F)cn1 [Example A113, 2-[5-[[[6-[cyclopropyl-[[5-(trifluoromethyl)-2-pyridyl]methyl]amino]-5-fluoro-pyrimidin-4-yl]amino]methyl]-2-pyridyl]acetamide] | < 10000 nM
CS(=O)(=O)c1ccc(CNc2ncnc(N(Cc3ccc(C(F)(F)F)nc3)C3CC3)c2F)nc1 [Example A114, N4-cyclopropyl-5-fluoro-N6-[(5-methylsulfonyl-2-pyridyl)methyl]-N4-[[6-(trifluoromethyl)-3-pyridyl]methyl]pyrimidine-4,6-diamine] | < 500 nM
CS(=O)(=O)c1ccc(CNc2ncnc(N(Cc3ccc(C(F)(F)F)cn3)C3CC3)c2F)nc1 [Example A115, N4-cyclopropyl-5-fluoro-N6-[(5-methylsulfonyl-2-pyridyl)methyl]-N4-[[5-(trifluoromethyl)-2-pyridyl]methyl]pyrimidine-4,6-diamine] | < 500 nM
CN(Cc1cccc2ccccc12)c1ncnc(NCc2ccc(CC(N)=O)cc2)c1F [Example A118, 2-[4-[[[5-fluoro-6-[methyl(1-naphthylmethyl)amino]pyrimidin-4-yl]amino]methyl]phenyl]acetamide] | < 500 nM
Cn1cc(CN(c2ncnc(NCc3ccc(CC(N)=O)cc3)c2F)C2CC2)cn1 [Example A119, 2-[4-[[[6-[cyclopropyl-[(1-methylpyrazol-4-yl)methyl]amino]-5-fluoro-pyrimidin-4-yl]amino]methyl]phenyl]acetamide] | < 2000 nM
CN(Cc1ccc2ccccc2c1)c1ncnc(NCc2ccc(CC(N)=O)cc2)c1F [Example A121, 2-[4-[[[5-fluoro-6-[methyl(2-naphthylmethyl)amino]pyrimidin-4-yl]amino]methyl]phenyl]acetamide] | < 500 nM
CN(Cc1ccccc1OC(F)(F)F)c1ncnc(NCc2ccc(CC(N)=O)cc2)c1F [Example A122, 2-[4-[[[5-fluoro-6-[methyl-[[2-(trifluoromethoxy)phenyl]methyl]amino]pyrimidin-4-yl]amino]methyl]phenyl]acetamide] | < 500 nM
CCN(Cc1cn(CC)nc1C)c1ncnc(NCc2ccc(CC(N)=O)cc2)c1F [Example A123, 2-[4-[[[6-[ethyl-[(1-ethyl-3-methyl-pyrazol-4-yl)methyl]amino]-5-fluoro-pyrimidin-4-yl]amino]methyl]phenyl]acetamide] | < 10000 nM
CCN(Cc1cccc2c1OCO2)c1ncnc(NCc2ccc(CC(N)=O)cc2)c1F [Example A126, 2-[4-[[[6-[1,3-benzodioxol-4-ylmethyl(ethyl)amino]-5-fluoro-pyrimidin-4-yl]amino]methyl]phenyl]acetamide] | < 500 nM
CN(Cc1cccc(OC(F)F)c1)c1ncnc(NCc2ccc(CC(N)=O)cc2)c1F [Example A127, 2-[4-[[[6-[[3-(difluoromethoxy)phenyl]methyl-methyl-amino]-5-fluoro-pyrimidin-4-yl]amino]methyl]phenyl]acetamide] | < 500 nM
CN(Cc1cccc(OC(F)(F)F)c1)c1ncnc(NCc2ccc(CC(N)=O)cc2)c1F [Example A128, 2-[4-[[[5-fluoro-6-[methyl-[[3-(trifluoromethoxy)phenyl]methyl]amino]pyrimidin-4-yl]amino]methyl]phenyl]acetamide] | < 500 nM
CN(Cc1cccc(C(F)(F)F)c1)c1ncnc(NCc2ccc(CC(N)=O)cc2)c1F [Example A129, 2-[4-[[[5-fluoro-6-[methyl-[[3-(trifluoromethyl)phenyl]methyl]amino]pyrimidin-4-yl]amino]methyl]phenyl]acetamide] | < 500 nM
